Source: patent US7858738B2, “Synthetic human peptides and pharmaceutical compositions comprising them for the treatment of systemic lupus erythematosus” (Yeda Research and Development Co., Ltd., priority 2001, dated 2010)

Legend:
[1] = test system: PBL of SLE patients; test: Proliferation of PBL of SLE patients stimulated with the mitogen PHA; assay type: cell-based, human; conditions: PBL of one SLE patient; PHA 2 μg/ml; FIG. 5
Protocol: To this end the peptides hCDR1 or hCDR3 were added to cultures of PBL of SLE patients that were stimulated with the mitogen phytohemagglutinin (PHA, 2 μg/ml).

[2] = test system: PBL of SLE patients; test: TGF-β secretion by PBL of SLE patients stimulated with the human 16/6Id mAb (ELISA); assay type: cell-based; conditions: for secretion of TGF-β by PBL: one representative SLE patient, FIG. 9; for Maximum Up-regulation % (TGF-β secretion): percent secretion above that with 16/6Id alone (mean 636 ± 25 pg/ml = 100%); for Up-regulation of TGF-β %: share of 19 SLE patients with up-regulation
Protocol: For this purpose, supernatants were removed from cultures of PBL of various SLE patients following 48 hours incubation with the human 16/6Id mAb in the absence or presence of the peptides hCDR1 or hCDR3. TGF-β was determined by ELISA according to the manufacturer's instructions. Briefly, Maxisorb plates (Nunc) were coated with recombinant human TGFβsRII/Fc chimera (R&D Systems) diluted in PBS (100 ng/ml). After blocking, cell supernatants were added. After 18 hours incubation the detecting biotinylated anti-human TGF-β antibody (R&D Systems) was added. The substrate solution used was the TMB Colour Reagent (Helix Diagnostics) and enzyme activity was evaluated by the MRX ELISA reader using the 570 nm and 630 nm filters.

[3] = test system: PBL of SLE patients; test: IL-2 secretion by PBL of SLE patients stimulated with the human 16/6Id mAb (CTLL line); assay type: cell-based; conditions: for patients whose PBL IL-2 secretion was inhibited: 23 responders stimulated by the human 16/6Id; for Maximum inhibition % (IL-2 secretion): PBL of 23 responders; for Maximum inhibition % (IL-2 secretion) / Inhibitory Activity* % (IL-2 secretion): IL-2 secretion with 16/6 Id alone = 100%; for inhibition of the IL-2 secretion by PBL: PBL of one SLE patient, FIG. 8; for Inhibitory Activity* % (IL-2 secretion): share of 23 responders with inhibition of 50% or more
Protocol: It was of interest to find out whether the hCDR peptides are capable of inhibiting IL-2 secretion by PBL of SLE patients following stimulation with the human 16/6Id mAb. […] To this end, PBL of SLE patients were incubated with the human 16/6Id mAb in the absence or presence of the peptides hCDR1 or hCDR3. Supernatants of the cultures were collected following 48 hours of incubation. Assays to determine levels of IL-2 in the supernatants were performed using the CTLL IL-2 dependent line. Briefly, cells of the CTLL line (2×10^4/well) were incubated in the presence of the different supernatants for 24 hours, followed by the addition of ^3H-thymidine for an additional 18-hour incubation period. Cells were then harvested and radioactivity counted using a β-counter. Results were calculated based on recombinant human IL-2 used as a standard. The ability of the peptides to inhibit the IL-2 secretion of PBL of 23 responders stimulated by the human 16/6Id was tested. […] Inhibition of proliferative responses of PBL directly correlated with IL-2 inhibition by the CDR-based peptides.

| Sequence | inhibition of the proliferative responses of the PBL to the mitogen PHA [1] | secretion of TGF-β by PBL [2] | Maximum Up-regulation % (TGF-β secretion) [2] [%] | Up-regulation of TGF-β % [2] | patients whose PBL IL-2 secretion was inhibited [3] | Maximum inhibition % (IL-2 secretion) [3] [%] | inhibition of the IL-2 secretion by PBL [3] [%] | Inhibitory Activity* % (IL-2 secretion) [3] |
| --- | --- | --- | --- | --- | --- | --- | --- | --- |
| GYYWSWIRQPPGKGEEWIG (Human) [hCDR1, 19-mer peptide based on the CDR1 of the heavy chain of the human 16/6Id mAb] | could not inhibit | significant up-regulation | 305 ± 221 | 100 (19/19) % | 21/23 | 84 ± 31 | 100 | 91 (21/23) % |
| YYCARGLLRGGWNDVDYYGMDV (Human) [hCDR3, peptide based on the CDR3 of the heavy chain of the human 16/6Id mAb] | could not inhibit | significant up-regulation | 338 ± 242 | 100 (19/19) % | 19/23 | 78 ± 34 | 100 | 83 (19/23) % |
